According to patent publication US9586907B2, “Isothiocyanate compounds, pharmaceutical compositions, and uses thereof” (priority 2006, dated 2017):
Values after ≈ are worked out from the molar mass of the structure shown. Like-named read-outs stand apart in the source and are kept apart here.

Key:
Candida crusei 6258^mdr = assay: microbe, parasite or virus in culture; details: read-out: Anti-Fungal Activity (MIC)
M. tuberculosis W = assay: MIC, M. tuberculosis W; assay type: cell-based; details: Mycobacterium tuberculosis, read-out: MIC
Description: (§1) Next, several of the bifunctional ITC compounds were tested for their ability to inhibit the growth of some clinical isolates of Mycobacteria, the results of which are summarized in Table 3 below.

Bacillus cereus 4342 = assay: MIC, Bacillus cereus 4342; details: Bacillus cereus, 4342, 24 h
[1] = tested on: Cryptococcus neoformans CNH99; assay: Anti-fungal MIC, Cryptococcus neoformans CNH99; details: Cryptococcus neoformans, CNH99, read-out: Anti-Fungal Activity (MIC)
[2] = tested on: Klebsiella pneumonii BK12261; assay: MIC, Klebsiella pneumonii BK12261; details: Klebsiella, BK12261, 24 h
[3] = tested on: Enterobacter cloacii BK12313; assay: MIC, Enterobacter cloacii BK12313; details: Enterobacter, BK12313, 24 h
[4] = tested on: Acinetobacter sp., BK12787; assay: MIC, Acinetobacter sp., BK12787; details: Acinetobacter, 24 h
Candida albicans 90030 = assay: Anti-fungal MIC, Candida albicans 90030; details: Candida albicans, 90030, read-out: Anti-Fungal Activity (MIC)
[5] = tested on: Candida albicans 5108^mdr; assay: Anti-fungal MIC, Candida albicans 5108^mdr; details: Candida albicans, read-out: Anti-Fungal Activity (MIC)
M. cansassi = assay: MIC, M. cansassi; assay type: cell-based
[6] = tested on: Staphylococcus epidermidis BK12799; assay: MIC, Staphylococcus epidermidis BK12799; details: Staphylococcus epidermidis, BK12799, 24 h
M. intracellularie = assay: MIC, M. intracellularie; assay type: cell-based
[7] = tested on: Klebsiella pneumonii BK12260; assay: MIC, Klebsiella pneumonii BK12260; details: Klebsiella, BK12260, 24 h
[8] = tested on: Streptococcus sp., BK12235; assay: MIC, Streptococcus sp., BK12235; details: Streptococcus, 24 h
Candida albicans 90028 = assay: Anti-fungal MIC, Candida albicans 90028; details: Candida albicans, 90028, read-out: Anti-Fungal Activity (MIC)
[9] = tested on: Streptococcus sp., BK12233; assay: MIC, Streptococcus sp., BK12233; details: Streptococcus, 24 h
[10] = tested on: Aspergillus fumigatus Rit 11; assay: Anti-fungal MIC, Aspergillus fumigatus Rit 11; details: Aspergillus fumigatus, RIT11, read-out: Anti-Fungal Activity (MIC)
[11] = tested on: Enterococcus sp., BK11936; assay: MIC, Enterococcus sp., BK11936; details: Enterococcus, 24 h
M. tuberculosis H37Rv = assay: MIC, M. tuberculosis H37Rv; assay type: cell-based; details: Mycobacterium tuberculosis, read-out: MIC
Description: as §1

[12] = tested on: Serattia marcescens BK12426; assay: MIC, Serattia marcescens BK12426; details: 24 h
Candida dlabrata 250^mdr = assay: Anti-fungal MIC, Candida dlabrata 250^mdr; details: Candida, read-out: Anti-Fungal Activity (MIC)
[13] = tested on: Serattia marcescens BK12421; assay: MIC, Serattia marcescens BK12421; details: 24 h
Shigella sp., BK 12440 = assay: MIC, Shigella sp., BK 12440; assay type: cell-based; details: Gram −, 24 hours of incubation, read-out: MIC
[14] = tested on: Aspergillus fumigatus Rit 1; assay: Anti-fungal MIC, Aspergillus fumigatus Rit 1; details: Aspergillus fumigatus, RIT1, read-out: Anti-Fungal Activity (MIC)
Escherichia coli K12 = assay: MIC, Escherichia coli K12; details: Escherichia coli, K12, 24 h
[15] = tested on: Acinetobacter sp., BK12786; assay: MIC, Acinetobacter sp., BK12786; details: Acinetobacter, 24 h
[16] = tested on: Enterococcus sp., BK11940; assay: MIC, Enterococcus sp., BK11940; details: Enterococcus, 24 h
[17] = tested on: Bacillus subtilis BK11590; assay: MIC, Bacillus subtilis BK11590; assay type: cell-based; details: Gram +, 24 hours of incubation, read-out: MIC
Shigella sp., BK 12441 = assay: MIC, Shigella sp., BK 12441; assay type: cell-based; details: Gram −, 24 hours of incubation, read-out: MIC
[18] = tested on: MRSA (Staphylococcus aureus) BK12064; assay: MIC, MRSA BK12064; details: Staphylococcus aureus, MRSA, 24 h
[19] = tested on: Pseudomonas aeruginosa BK12347; assay: MIC, Pseudomonas aeruginosa BK12347; details: Pseudomonas aeruginosa, BK12347, 24 h
M. scrofulaceum = assay: MIC, M. scrofulaceum; assay type: cell-based; details: Mycobacterium scrofulaceum
Escherichia coli BK12336 = assay: MIC, Escherichia coli BK12336; details: Escherichia coli, BK12336, 24 h
[20] = tested on: Enterobacter cloacii BK12315; assay: MIC, Enterobacter cloacii BK12315; details: Enterobacter, BK12315, 24 h
M. tuberculosis CDC1551 = assay: MIC, M. tuberculosis CDC1551; assay type: cell-based; details: Mycobacterium tuberculosis, read-out: MIC
Description: as §1

M. avium = assay: MIC, M. avium; assay type: cell-based; details: Mycobacterium avium
[21] = tested on: Staphylococcus epidermidis BK12798; assay: MIC, Staphylococcus epidermidis BK12798; details: Staphylococcus epidermidis, BK12798, 24 h
[22] = tested on: Pseudomonas aeruginosa BK12348; assay: MIC, Pseudomonas aeruginosa BK12348; details: Pseudomonas aeruginosa, BK12348, 24 h
M. fortuitum = assay: MIC, M. fortuitum; assay type: cell-based; details: Mycolicibacterium fortuitum
[23] = tested on: Candida parapsilosis 22019; assay: Anti-fungal MIC, Candida parapsilosis 22019; details: 22019, read-out: Anti-Fungal Activity (MIC)
M. tuberculosis P = assay: MIC, M. tuberculosis P; assay type: cell-based; details: Mycobacterium tuberculosis, read-out: MIC
Description: as §1

[24] = tested on: Aspergillus fumigatus Rit 21; assay: Anti-fungal MIC, Aspergillus fumigatus Rit 21; details: Aspergillus fumigatus, RIT21, read-out: Anti-Fungal Activity (MIC)
[25] = tested on: MRSA (Staphylococcus aureus) BK12060; assay: MIC, MRSA BK12060; details: Staphylococcus aureus, MRSA, 24 h
[26] = tested on: clinical isolates of bacteria and fungus (including yeasts); assay: General antimicrobial activity, semi-quantitative score on collection of clinical isolates; assay type: cell-based; on General antimicrobial activity: key: −: indicating no activity; +++++: indicating highest activity
Description: The growth inhibitory effect of a number of various ITC compounds were tested on large collection of clinical isolates of bacteria and fungus (including yeasts), in order to establish a systematic structure-activity relationship for the ITC compounds. […] To assess the average activity for an individual ITC compound, the semi-quantitative score was calculated for each compound based on the number of sensitive bacterial strains at concentrations of 100 and 200 μM.

[27] = Compound stability, independent experiments; assay type: physicochemical
Bacillus cereus = assay: Activity of ITC compounds against Bacillus cereus; assay type: cell-based
[28] = In vivo tolerance in mice; details: highest dose, 50 mg/kg
virus (92TH594) = assay: Viral proliferation in PBMC, p24 viral antigen; assay type: cell-based; details: PBMC
[29] = tested on: Staphylococcus epidermidis; assay: Activity against Staphylococcus epidermidis (data not shown); assay type: cell-based
[30] = tested on: methicillin-resistant Staphylococcus aureus (MRSA); assay: Activity against MRSA (data not shown); assay type: cell-based

COc1ccc(CN=C=S)cc1 [Compound 2, reference compound] showed an MIC (Candida crusei 6258^mdr) of 2 µg/mL (≈ 11.2 µM), an MIC (M. tuberculosis W) of 8 µg/mL (≈ 44.6 µM) and an MIC (Bacillus cereus 4342) of 32 µg/mL (≈ 179 µM). The MIC [1] was < 1 µg/mL, the MIC [2] was > 64 µg/mL and the MIC [3] was > 64 µg/mL. The MIC [4] was > 64 µg/mL, the MIC (Candida albicans 90030) was 4 µg/mL (≈ 22.3 µM) and the MIC [5] was 2 µg/mL (≈ 11.2 µM). It also gave an MIC (M. cansassi; M. cansassi, read-out: MIC) of 32 µg/mL (≈ 179 µM), an MIC [6] of 32 µg/mL (≈ 179 µM) and an MIC (M. intracellularie; M. intracellularie, read-out: MIC) of 32 µg/mL (≈ 179 µM). The MIC [7] was > 64 µg/mL, the MIC [8] was 8 µg/mL (≈ 44.6 µM) and the MIC (Candida albicans 90028) was 4 µg/mL (≈ 22.3 µM). It also gave an MIC [9] of 4 µg/mL (≈ 22.3 µM), an MIC [10] of 8 µg/mL (≈ 44.6 µM) and an MIC [11] of 64 µg/mL (≈ 357 µM). The MIC (M. tuberculosis H37Rv) was 32 µg/mL (≈ 179 µM), the MIC [12] was > 64 µg/mL and the MIC (Candida dlabrata 250^mdr; 48 h) was 1 µg/mL (≈ 5.58 µM). For the same compound, the MIC [13] was > 64 µg/mL, the MIC (Shigella sp., BK 12440) was 64 µg/mL (≈ 357 µM) and the MIC [14] was 8 µg/mL (≈ 44.6 µM). The MIC (Escherichia coli K12) was 64 µg/mL (≈ 357 µM), the MIC [15] was > 64 µg/mL and the MIC [16] was 64 µg/mL (≈ 357 µM). It also gave an MIC [17] of 32 to 64 µg/mL (≈ 179 to 357 µM), an MIC (Shigella sp., BK 12441) of 32 to 64 µg/mL (≈ 179 to 357 µM) and an MIC [18] of 64 µg/mL (≈ 357 µM). For the same compound, the MIC [19] was > 64 µg/mL, the MIC (M. scrofulaceum; M. scrofulaceum, read-out: MIC) was 32 µg/mL (≈ 179 µM) and the MIC (Escherichia coli BK12336) was > 64 µg/mL. The MIC [20] was > 64 µg/mL, the MIC (M. tuberculosis CDC1551) was 32 µg/mL (≈ 179 µM) and the MIC (M. avium; M. avium, read-out: MIC) was 32 µg/mL (≈ 179 µM). For the same compound, the MIC [21] was 32 µg/mL (≈ 179 µM), the MIC [22] was > 64 µg/mL and the MIC (M. fortuitum; M. fortuitum, read-out: MIC) was 32 µg/mL (≈ 179 µM). For the same compound, the MIC [23] was 4 µg/mL (≈ 22.3 µM), the MIC (M. tuberculosis P) was 8 µg/mL (≈ 44.6 µM) and the MIC [24] was 8 µg/mL (≈ 44.6 µM). For the same compound, the MIC [25] was 32 to 64 µg/mL (≈ 179 to 357 µM).
In the case of S=C=NCc1ccncc1 [Compound 29], the General antimicrobial activity ([26]; semi-quantitative score from number of sensitive bacterial strains at 100 and 200 μM, deduced from number of sensitive bacterial species and average MIC) is reported as “−” and the “stability of the compound” value [27] is reported as “instability of the compound”.
With S=C=NCc1cccnc1 [Compound 30] the MIC (Candida crusei 6258^mdr) was 0.5 µg/mL (≈ 3.33 µM), the MIC (M. tuberculosis W) was 4 µg/mL (≈ 26.6 µM) and the MIC [1] was 1 µg/mL (≈ 6.66 µM). For the same compound, the MIC (Candida albicans 90030) was 1 µg/mL (≈ 6.66 µM), the MIC [5] was 0.5 µg/mL (≈ 3.33 µM) and the MIC (M. cansassi) was 32 µg/mL (≈ 213 µM). For the same compound, the MIC (M. intracellularie) was 32 µg/mL (≈ 213 µM), the “activity against Bacillus cereus (in words)” value (Bacillus cereus) was “only moderately active” and the “toxicity in treated mice” value [28] was “no toxicity was observed”. For the same compound, the MIC (Candida albicans 90028) was 2 µg/mL (≈ 13.3 µM), the MIC [10] was 4 µg/mL (≈ 26.6 µM) and the MIC (M. tuberculosis H37Rv) was 32 µg/mL (≈ 213 µM). The MIC (Candida dlabrata 250^mdr; 48 h) was 2 µg/mL (≈ 13.3 µM), the MIC [14] was 4 µg/mL (≈ 26.6 µM) and the P24 values (virus (92TH594); compound 2.5 μg/ml, added to the cells after viral infection) was 643 pg/mL. It also gave a P24 values (virus (92TH594); compound 2.5 μg/ml, added to the cells before viral infection) of 320 pg/mL, a P24 values (virus (92TH594); compound 10 μg/ml, added to the cells after viral infection) of 155 pg/mL and a P24 values (virus (92TH594); compound 10 μg/ml, added to the cells before viral infection) of 0 pg/mL. The MIC (M. scrofulaceum) was 32 µg/mL (≈ 213 µM), the MIC (M. tuberculosis CDC1551) was 16 µg/mL (≈ 107 µM) and the MIC (M. avium) was 32 µg/mL (≈ 213 µM). It also gave an MIC (M. fortuitum) of 16 µg/mL (≈ 107 µM), an MIC [23] of 1 µg/mL (≈ 6.66 µM) and an MIC (M. tuberculosis P) of 4 µg/mL (≈ 26.6 µM). For the same compound, the MIC [24] was 4 µg/mL (≈ 26.6 µM).
For S=C=NCc1ccc2ccc3cccc4ccc1c2c34 [Compound 33], the MIC (Candida crusei 6258^mdr) was > 64 µg/mL, the “activity against Staphylococcus epidermidis (in words)” value [29] was “very efficient” and the MIC [1] was 4 µg/mL (≈ 14.6 µM). The MIC (Candida albicans 90030) was 8 µg/mL (≈ 29.3 µM), the MIC [5] was > 64 µg/mL and the “activity against Bacillus cereus (in words)” value (Bacillus cereus) was “very efficient”. The MIC (Candida albicans 90028) was 32 µg/mL (≈ 117 µM), the MIC [10] was > 64 µg/mL and the “antimicrobial / growth-inhibitory activity (in words)” value ([26]; Table 1 screen) was “poor growth-inhibitory activity”. The MIC (Candida dlabrata 250^mdr) was 64 µg/mL (≈ 234 µM), the MIC [14] was > 64 µg/mL and the “activity against MRSA (in words)” value [30] was “very efficient”. The MIC [23] was 32 µg/mL (≈ 117 µM) and the MIC [24] was > 64 µg/mL.
